Values after ≈ are worked out from the molar mass of the structure shown. Like-named read-outs stand apart in the source and are kept apart here.
What was measured:
[1] = system: Streptococcus pneumoniae; assay: Determination of MIC values (BHI broth, 96 well microtiter plate); type: cell-based; conditions: Streptococcus pneumoniae, BHI broth, read-out: MIC S. pneu
In short: (§1)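 BHI broth microdilution; final compound 25, 12.5, 6.25, 3.125, 1.56, 0.78, 0.39, 0 µg/mL (1% DMSO). Inoculum 10^5–10^6 cells/mL; 37° C, ~7-10% CO2, ~16 h. MIC = lowest concentration, no observable growth.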

[2] = system: methicillin-resistant Staphylococcus aureus (MRSA); assay: as above; type: cell-based; conditions: Staphylococcus aureus, MRSA, BHI broth, read-out: MIC MRSA
In short: as §1

[3] = system: vancomycin-resistant Enterococcus spp. (VRE); assay: as above; type: cell-based; conditions: Enterococcus, VRE, BHI broth, read-out: MIC VREF
In short: as §1

[4] = Acute in vivo toxicity in mice, intraperitoneal injection; conditions: in 10% w/v hydroxypropyl-β-cyclodextrin in 0.9% w/v saline, 5 mice
Procedure: Solutions of compounds in 10% w/v hydroxypropyl-β-cyclodextrin in 0.9% w/v saline were prepared. Doses of 40 mg/kg or 120 mg/kg of each compound were administered to mice (5 mice/compound/dose) via intraperitoneal injections. The mice […] for seven days.

[5] = 37° C., overnight (about 16 hours)
[6] = 16 h, 37° C., overnight (about 16 hours)

Structure (SMILES)	MIC ([1]; S. pneu, overnight 37° C.)	MIC ([2]; overnight 37° C.)	MIC ([3]; VREF, overnight 37° C.)	MIC ([1]; 37° C., about 16 hours)	MIC ([2]; 16 h, 37° C., about 16 hours)	MIC ([3]; 16 h, 37° C., about 16 hours)	further results
COC(=O)c1cc(-c2c[nH]c3ccc(Br)cc23)nc2cc(F)ccc12 [Example 307]	< 7 µg/mL	< 7 µg/mL	< 7 µg/mL	–	–	–	Mice Surviving on Day 7 ([4]; 40 mg/kg intraperitoneal): 100%; Mice Surviving on Day 7 ([4]; 120 mg/kg intraperitoneal): 100%
Cn1cc(-c2cc(C(=O)NCCN)c3cc(I)ccc3n2)c2cc(Br)ccc21 [Example 359]	< 7 µg/mL	< 7 µg/mL	< 7 µg/mL	–	–	–	Mice Surviving on Day 7 ([4]; 40 mg/kg intraperitoneal): 100%; Mice Surviving on Day 7 ([4]; 120 mg/kg intraperitoneal): 100%
Cn1cc(-c2cc(C(=O)NCCN)c3cc(C#CCN4CCCCC4)ccc3n2)c2cc(Br)ccc21 [Example 379]	–	–	–	–	–	–	Mice Surviving on Day 7 ([4]; 40 mg/kg intraperitoneal): 40%; Mice Surviving on Day 7 ([4]; 120 mg/kg intraperitoneal): 0%
Fc1ccc2c(-c3ccc4cc(Cl)ccc4n3)c[nH]c2c1 [Example 193]	–	–	–	–	–	–	MIC [1, 5]: < 7 µg/mL; MIC [2, 6]: < 7 µg/mL; MIC [3, 6]: < 7 µg/mL; Mice Surviving on Day 7 ([4]; 40 mg/kg intraperitoneal): 100%; Mice Surviving on Day 7 ([4]; 120 mg/kg intraperitoneal): 100%
Cn1cc(-c2cc(C(=O)NCCN)c3cc(C#CCN4CCCCC4)c(Cl)cc3n2)c2cc(Br)ccc21 [Example 419]	–	–	–	< 7 µg/mL	< 7 µg/mL	< 7 µg/mL	Mice Surviving on Day 7 ([4]; 40 mg/kg intraperitoneal): 40%; Mice Surviving on Day 7 ([4]; 120 mg/kg intraperitoneal): 0%
NCCNC(=O)c1cc(-c2c[nH]c3ccc(Br)cc23)nc2ccc(I)cc12 [Example 107]	–	–	–	–	–	–	MIC [1, 5]: < 7 µg/mL; MIC [2, 6]: < 7 µg/mL; MIC [3, 6]: < 7 µg/mL; Mice Surviving on Day 7 ([4]; 40 mg/kg intraperitoneal): 100%; Mice Surviving on Day 7 ([4]; 120 mg/kg intraperitoneal): 0%
Clc1ccc2[nH]cc(-c3cc(Cl)c4ccccc4n3)c2c1 [Example 342]	< 7 µg/mL	< 7 µg/mL	> 25 µg/mL	–	–	–	Mice Surviving on Day 7 ([4]; 40 mg/kg intraperitoneal): 100%; Mice Surviving on Day 7 ([4]; 120 mg/kg intraperitoneal): 100%
COc1ccc2nc(-c3c[nH]c4ccc(Cl)cc34)ccc2c1 [Example 417]	–	–	–	–	–	–	Mice Surviving on Day 7 ([4]; 40 mg/kg intraperitoneal): 100%; Mice Surviving on Day 7 ([4]; 120 mg/kg intraperitoneal): 100%
Cn1cc(-c2cc(C(=O)NCCN)c3cc(C#CCN4CCCCC4)ccc3n2)c2cc(Br)ccc21 [Example 377]	< 7 µg/mL	< 7 µg/mL	< 7 µg/mL	–	–	–	–
Cn1cc(-c2cc(C(=O)NCCN)c3ccc(F)cc3n2)c2cc(Br)ccc21 [Example 325]	< 7 µg/mL	< 7 µg/mL	< 7 µg/mL	–	–	–	–
O=[N+]([O-])c1ccc2[nH]cc(-c3ccc4cc(Cl)ccc4n3)c2c1 [Example 196]	–	–	–	–	–	–	MIC [1, 5]: < 25 µg/mL; MIC [2, 6]: < 7 µg/mL; MIC [3, 6]: > 25 µg/mL
Cc1cccc2ccc(-c3c[nH]c4cc(F)ccc34)nc12 [Example 423]	–	–	–	> 25 µg/mL	> 25 µg/mL	> 25 µg/mL	–
Cn1cc(-c2cc(C(=O)NCc3ccc(CN)cc3)c3ccccc3n2)c2cc(Br)ccc21 [Example 119]	–	–	–	–	–	–	MIC [1, 5]: < 7 µg/mL; MIC [2, 6]: < 7 µg/mL; MIC [3, 6]: < 25 µg/mL
Cc1[nH]c2ccc(Cl)cc2c1-c1cc(Cl)c2ccc(Cl)cc2n1 [Example 473]	–	–	–	< 7 µg/mL	< 7 µg/mL	< 25 µg/mL	–
Cc1cc2nc(-c3c[nH]c4ccc(Br)cc34)cc(C(=O)NCC3CCC(CN)CC3)c2cc1C (stereo not shown) [Example 128]	–	–	–	–	–	–	MIC [1, 5]: < 7 µg/mL; MIC [2, 6]: < 7 µg/mL; MIC [3, 6]: < 7 µg/mL
COc1ccc(NC(=O)c2cc(-c3c[nH]c4ccc(Br)cc34)nc3ccc(C#CCN4CCCCC4)cc23)cc1 [Example 485]	–	–	–	< 25 µg/mL	< 7 µg/mL	> 25 µg/mL	–
Cc1cc2nc(-c3c[nH]c4ccc(Br)cc34)cc(C(=O)NCC3CCCC(CN)C3)c2cc1C (stereo not shown) [Example 127]	–	–	–	–	–	–	MIC [1, 5]: < 7 µg/mL; MIC [2, 6]: < 7 µg/mL; MIC [3, 6]: < 7 µg/mL
Clc1ccc2c(Cl)cc(-c3c[nH]c4ccc(OCc5ccccc5)cc34)nc2c1 [Example 477]	–	–	–	< 7 µg/mL	< 7 µg/mL	> 25 µg/mL	–
NCC1CCC(CNC(=O)c2cc(-c3c[nH]c4ccc(Br)cc34)nc3cc(Cl)c(I)cc23)CC1 (stereo not shown) [Example 244]	< 7 µg/mL	< 7 µg/mL	< 7 µg/mL	–	–	–	–

Structure (SMILES)	MIC ([1]; S. pneu, overnight 37° C.)	MIC ([2]; overnight 37° C.)	MIC ([3]; VREF, overnight 37° C.)	MIC ([1]; 37° C., about 16 hours)	MIC ([2]; 16 h, 37° C., about 16 hours)	MIC ([3]; 16 h, 37° C., about 16 hours)	further results
NCC1CCCC(CNC(=O)c2cc(-c3c[nH]c4ccc(Br)cc34)nc3ccc(Br)cc23)C1 (stereo not shown) [Example 123]	–	–	–	–	–	–	MIC [1, 5]: < 7 µg/mL; MIC [2, 6]: < 7 µg/mL; MIC [3, 6]: < 7 µg/mL
COc1ccc2nc(-c3c(C)[nH]c4ccc(C)cc34)ccc2c1 [Example 431]	–	–	–	> 25 µg/mL	> 25 µg/mL	> 25 µg/mL	–
Cc1ccc2nc(-c3c[nH]c4ccc(C)cc34)ccc2c1 [Example 440]	–	–	–	< 25 µg/mL	> 25 µg/mL	> 25 µg/mL	–
COc1ccc2nc(-c3c[nH]c4cc(Cl)ccc34)ccc2c1 [Example 414]	–	–	–	> 25 µg/mL	> 25 µg/mL	> 25 µg/mL	–
NCc1ccc(CNC(=O)c2cc(-c3c[nH]c4ccc(Br)cc34)nc3c(C#CCN4CCSCC4)cccc23)cc1 [Example 271]	< 7 µg/mL	< 7 µg/mL	< 25 µg/mL	–	–	–	–
Clc1ccc2nc(-c3c[nH]c4cccc(Cl)c34)ccc2c1 [Example 201]	< 7 µg/mL	< 7 µg/mL	< 25 µg/mL	–	–	–	–
COc1ccc(NC(=O)NCc2cc(-c3c[nH]c4ccc(Br)cc34)nc3cc(Cl)ccc23)cc1 [Example 514]	–	–	–	< 7 µg/mL	< 7 µg/mL	> 25 µg/mL	–
CN(CC#Cc1ccc2nc(-c3cn(C)c4ccc(Br)cc34)cc(C(=O)NCCN)c2c1)C1CCCCC1 [Example 407]	–	–	–	< 7 µg/mL	< 7 µg/mL	< 7 µg/mL	–
CCOC(=O)n1cc(-c2cc(C(=O)NCc3ccc(CN)cc3)c3cc(C#CCN4CCCCC4)ccc3n2)c2cc(Br)ccc21 [Example 337]	> 25 µg/mL	> 25 µg/mL	> 25 µg/mL	–	–	–	–
NCC1CCCC(CNC(=O)c2cc(-c3c[nH]c4ccc(Br)cc34)nc3cc(I)ccc23)C1 (stereo not shown) [Example 250]	< 7 µg/mL	< 7 µg/mL	< 7 µg/mL	–	–	–	–
NCC1CCCC(CNC(=O)c2cc(-c3c[nH]c4ccc(Br)cc34)nc3cc(Cl)c(I)cc23)C1 (stereo not shown) [Example 245]	< 7 µg/mL	< 7 µg/mL	< 7 µg/mL	–	–	–	–
Cc1ccc2nc(-c3c[nH]c4cc(Cl)ccc34)ccc2c1 [Example 436]	–	–	–	< 7 µg/mL	< 7 µg/mL	> 25 µg/mL	–
NCc1ccc(CNC(=O)c2cc(-c3c[nH]c4ccc(Br)cc34)nc3ccc(C(F)(F)F)cc23)cc1 [Example 103]	–	–	–	–	–	–	MIC [1, 5]: < 7 µg/mL; MIC [2, 6]: < 7 µg/mL; MIC [3, 6]: < 7 µg/mL
Cn1cc(-c2cc(C(=O)NCC3CCCC(CN)C3)c3cc(I)ccc3n2)c2cc(Br)ccc21 (stereo not shown) [Example 358]	< 7 µg/mL	< 7 µg/mL	< 7 µg/mL	–	–	–	–
O=C(NCc1nc2ccccc2[nH]1)c1cc(-c2c[nH]c3ccc(Br)cc23)nc2ccc(I)cc12 [Example 173]	–	–	–	–	–	–	MIC [1, 5]: < 7 µg/mL; MIC [2, 6]: < 7 µg/mL; MIC [3, 6]: > 25 µg/mL
Cc1ccc2nc(-c3c[nH]c4ccc(O)cc34)ccc2c1 [Example 468]	–	–	–	> 25 µg/mL	25 µg/mL (≈ 91.1 µM)	> 25 µg/mL	–
NCc1cccc(CNC(=O)c2cc(-c3c[nH]c4cc(F)ccc34)nc3cc(F)ccc23)c1 [Example 494]	–	–	–	< 7 µg/mL	< 7 µg/mL	< 7 µg/mL	–
Clc1ccc2nc(-c3c[nH]c4ccc(OCc5ccccc5)cc34)ccc2c1 [Example 194]	–	–	–	–	–	–	MIC [1, 5]: < 7 µg/mL; MIC [2, 6]: < 7 µg/mL; MIC [3, 6]: > 25 µg/mL
Fc1ccc2[nH]cc(-c3ccc4ccccc4n3)c2c1 [Example 181]	–	–	–	–	–	–	MIC [1, 5]: < 7 µg/mL; MIC [2, 6]: < 7 µg/mL; MIC [3, 6]: < 25 µg/mL
